From ChEMBL document CHEMBL2401715, “Synthesis, antitumor and antibacterial activities of some novel tetrahydrobenzo[4,5]thieno[2,3-d]pyrimidine derivatives” (Eur J Med Chem, 2013) come the findings set out here.

Test [1] has as its system Staphylococcus aureus. As to the kind of experiment: Antibacterial activity against Staphylococcus aureus ATCC 12600 assessed as growth inhibition after 24 to 48 hrs by kirby-bauer disc diffusion method. Format: functional. A general note: In agar diffusion tests the substance spreads into inoculated agar from a disc or well.
Test [2] deals with Escherichia coli. As to the kind of experiment: Antibacterial activity against Escherichia coli ATCC 11775 assessed as growth inhibition after 24 to 48 hrs by kirby-bauer disc diffusion method. It counts as functional, DSM 30083 = JCM 1649.
The test system of test [3] is MCF7. As to the kind of experiment: Cytotoxicity against human MCF7 cells assessed as cell survival after 48 hrs by SRB assay. It counts as functional, cell-based. The settings on record: MCF7, 48 h. (In general: Sulforhodamine B stains cellular protein and so reports cell mass.)
The test system of test [4] is HepG2. As to the kind of experiment: Cytotoxicity against human HepG2 cells assessed as cell survival after 48 hrs by SRB assay. It counts as functional, cell-based. The settings on record: HepG2, 48 h.
Test [5] deals with Bacillus subtilis. As to the kind of experiment: Antibacterial activity against Bacillus subtilis ATCC 6051 assessed as growth inhibition after 24 to 48 hrs by kirby-bauer disc diffusion method. Format: functional.
Test [6] deals with Pseudomonas aeruginosa. As to the kind of experiment: Antibacterial activity against Pseudomonas aeruginosa ATCC 10145 assessed as growth inhibition after 24 to 48 hrs by kirby-bauer disc diffusion method. It counts as functional.
Test [7] deals with Pseudomonas aeruginosa. As to the kind of experiment: Antibacterial activity against Pseudomonas aeruginosa ATCC 10145 assessed as growth inhibition by broth microdilution method. It counts as functional. (In general: Dilution methods test growth across graded concentrations, often in twofold steps.)
In test [8] the test system is Staphylococcus aureus. As to the kind of experiment: Antibacterial activity against Staphylococcus aureus ATCC 12600 assessed as growth inhibition by broth microdilution method. It counts as functional.

For the molecule `COc1cc(-c2nc3sc4c(c3c(=O)n2C(N)=S)CCCC4)cc(OC)c1OC`, the “diameter of the inhibition zone (DIZ)” value in test [1] was 12 mm; in test [2], 14 mm; in test [5] it was 12 mm; in test [6] it was 13 mm. Besides, the IC50 was 77.6 µM in test [3] and more than 232 µM in test [4].

For the molecule `COc1cc(-c2nc3sc4c(c3c(=O)n2C(N)=O)CCCC4)cc(OC)c1OC`, the “diameter of the inhibition zone (DIZ)” value in test [1] amounted to 16 mm; in test [2], 16 mm; in test [5], 16 mm; in test [6] it was 17 mm. Moreover, the IC50 in test [3] was determined as 26.2 µM; in test [4], 25.8 µM.

In the case of `COc1cc(-c2nc3sc4c(c3c(=O)n2C(=O)NO)CCCC4)cc(OC)c1OC`, the “diameter of the inhibition zone (DIZ)” value in test [1] was found to be 12 mm; in test [2] it was 14 mm; in test [5], 13 mm; in test [6], 13 mm. For the same molecule, the IC50 in test [3] came to 71.2 µM; in test [4] it was 14.4 µM.

Take `COc1cc(-c2nc3sc4c(c3c(=O)n2-c2ccc(C(=O)O)cc2)CCCC4)cc(OC)c1OC`: the “diameter of the inhibition zone (DIZ)” value in test [1] came out at 11 mm; in test [2] it was 10 mm; in test [5] it was 12 mm; in test [6], 10 mm. Further, the results for the IC50 in test [3] and in test [4] were more than 203 µM and 29.6 µM, respectively.

With `COc1cc(-c2nc3sc4c(c3c(=O)n2-c2ccc(S(N)(=O)=O)cc2)CCCC4)cc(OC)c1OC`, the “diameter of the inhibition zone (DIZ)” value in test [1] is given as 9 mm; in test [2] it was 12 mm; in test [5], 14 mm; in test [6], 13 mm. The IC50 in test [3] is 37.1 µM; in test [4] it was more than 190 µM.

As to `COc1cc(-c2nc3sc4c(c3c(=O)n2-c2ccc3c(C)c5ccc(N)cc5nc3c2)CCCC4)cc(OC)c1OC`, the MIC in test [7] is 11 µg/mL; in test [8] it was 8 µg/mL. Moreover, the “diameter of the inhibition zone (DIZ)” value in test [1] came out at 26 mm; in test [2], 22 mm; in test [5], 23 mm; in test [6], 25 mm. Moreover, the IC50 was 0.86 µM in test [3] and 5.5 µM in test [4].

In the case of `Cc1c2ccc(N)cc2nc2cc(-n3c(/C=C/c4ccccc4)nc4sc5c(c4c3=O)CCCC5)ccc12`, the MIC was determined as 18 µg/mL in test [7] and 13 µg/mL in test [8]. Also, the “diameter of the inhibition zone (DIZ)” value was 24 mm in test [1], 21 mm in test [2], 20 mm in test [5] and 21 mm in test [6]. Also, the IC50 in test [3] came to 0.19 µM; in test [4] it was 5.82 µM.

Take `CC1(C)S[C@@H]2[C@H](NC(=O)[C@H](N)c3ccccc3)C(=O)N2[C@H]1C(=O)O` [AMPICILLIN]: the MIC in test [7] was 56 µg/mL; in test [8], 48 µg/mL. Besides, the “diameter of the inhibition zone (DIZ)” value turned out to be 18 mm in test [1], 22 mm in test [2], 20 mm in test [5] and 17 mm in test [6].

One may read the IC50 as the concentration needed to halve the response being measured. The term MIC denotes the least concentration at which growth counts as inhibited.
